In patent US11691962B2 (eXIthera Pharmaceuticals, Inc., priority 2018, dated 2023):
Read-outs that look alike come from different tables or passages of the source.

Experiments:
[1] = biological target: Factor Xa (Homo sapiens (Human), UniProt P00742); assay: Dose response assay for protease inhibitors: Factor Xa; format: biochemical; settings: selectivity, Factor Xa over Factor XIa
Summary of the method: (§1)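 Glp-Pro-Arg-AMC substrate (thrombin, trypsin) or Pro-Phe-Arg-AMC/Boc-Leu-Gly-Arg-AMC (Factor Xa), diluted to 100 μM, in 20 mM Hepes pH 7.4, 150 mM NaCl, 0.02% Tween 20; enzyme diluted to 0.5 nM before addition. Two-fold serial compound dilutions; kinetic reads at 30° C. Data yield IC50 and Kon.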

[2] = Metabolic stability in dog hepatocytes; format: in vitro ADME; settings: pooled cryopreserved hepatocytes; beagle dog hepatocytes, 2 μM compound; read-out: Dog Hepatocyte Stability (t1/2)
Experimental: The following procedure was used to determine the stability of test compounds in beagle dog hepatocytes in a 96-well plate format. The test compounds, including the controls, imipramine and 7-ethoxycoumarin, were dissolved at 10 mM in DMSO, followed by further 5-fold dilution with DMSO to 2 mM. Pooled cryopreserved beagle dog hepatocytes were thawed and transferred into complete medium. Cells were gently centrifuged (700 rpm for 5 min) and the pellet rinsed with KHB (Krebs Henseleit buffer). Cells were resuspended, counted using Trypan blue, and adjusted to 1 million cells/mL in KHB buffer. The 2 mM compound stock solutions were diluted 10-fold with acetonitrile, followed by a further 50-fold dilution with KHB buffer. 200 μL of these compound solutions were transferred to 96-well polypropylene assay plates and an equal volume of the hepatocyte solution was added and mixed to initiate the reaction (final assay concentrations were 2 μM compound and 500,000 cells/mL). Assay plates were incubated at 37° C. in 5% CO2 with gentle agitation. 50 μL aliquots were removed at multiple time points out to 180 minutes and quenched with 6 volumes of cold acetonitrile (containing 250 ng/mL of carbutamide and chrysin as internal standards) to terminate the reaction and precipitate protein. Quenched samples were maintained on ice. The quenched samples were centrifuged at 2000×g (3100 rpm) for 10 minutes at 4° C. 50 μL aliquots of the supernatants were removed and diluted with 100 μL Milli-Q water to reduce the % organic content prior to bioanalysis by LC-MS/MS. Peak areas corresponding to the test compound were recorded. The compound remaining was calculated by comparing the peak area at each time point to time zero. Data were analyzed and results were calculated using Microsoft Excel 2010.

[3] = system: Trypsin; assay: Dose response assay for protease inhibitors: trypsin; format: biochemical; settings: selectivity, trypsin over Factor XIa
Summary of the method: as §1

[4] = Plasma protein binding by equilibrium dialysis; format: in vitro ADME; settings: pH 7.4, pooled human plasma, 4 hours at 37° C., read-out: PPB (%)
Experimental: The following procedure was used to determine the plasma protein binding of a test compound in pooled plasma from human (mixed gender) via equilibrium dialysis in a 96-well plate format. The dialysate compartment was loaded with phosphate-buffered saline (pH 7.4) and the sample side was loaded with plasma spiked with the test compound at a concentration of 10 μM. After loading, samples were covered and incubated for 4 hours at 37° C. After incubation, each compartment was sampled, diluted with acetonitrile/buffer and centrifuged. The supernatants were analyzed by HPLC-MS/MS. The analyte peak areas obtained from HPLC-MS/MS analysis of each sample were used to calculate protein binding according to the following equation (Equation 4):
[formula] where: AREAp=Peak area of analyte in protein matrix; AREAb=Peak area of analyte in buffer.
The amount measured in the plasma compartment included both free and bound drug, while that on the buffer side represented free drug only; the differences were used to calculate the percentage plasma protein bound. Three reference compounds were tested in each assay: acebutolol, quinidine and warfarin.

[5] = biological target: Thrombin (Homo sapiens (Human), UniProt P00734); assay: Dose response assay for protease inhibitors: thrombin; format: biochemical; settings: selectivity, thrombin over Factor XIa
Summary of the method: as §1

Sequence of Factor Xa (P00742 235-488): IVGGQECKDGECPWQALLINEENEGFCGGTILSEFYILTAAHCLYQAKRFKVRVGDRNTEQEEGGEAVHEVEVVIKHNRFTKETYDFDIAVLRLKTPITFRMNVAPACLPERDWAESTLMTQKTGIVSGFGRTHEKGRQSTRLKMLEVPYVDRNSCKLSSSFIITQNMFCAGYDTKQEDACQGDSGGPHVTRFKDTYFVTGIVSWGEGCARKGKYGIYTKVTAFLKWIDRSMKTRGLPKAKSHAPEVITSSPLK
Sequence of Factor Xa (P00742 41-179 partner): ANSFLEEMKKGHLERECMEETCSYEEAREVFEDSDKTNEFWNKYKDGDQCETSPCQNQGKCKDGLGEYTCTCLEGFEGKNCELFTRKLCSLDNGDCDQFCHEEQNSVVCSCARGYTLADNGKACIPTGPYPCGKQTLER

SMILES	Ratio: FXa/FXIa [1]	half-life at 2 μM [2]	fraction unbound at 4 h, 10 μM ([4]; both sexes)	Ratio: Thrombin/FXIa [5]	fraction unbound at 4 h, 10 μM ([4]; both)	Ratio: Trypsin/FXIa [3]
CC[C@@H](NC(=O)N1C(=O)[C@H](Cc2ccnc(N)c2)[C@H]1C(=O)N(C)c1nccn1C)C1CCCCC1 [Compound 1-55, (2S,3R)-3-((2-aminopyridin-4-yl)methyl)-N2-(1-methyl-1H-imidazol-2-yl)-N1-((R)-1-cyclohexylpropyl)-N2-methyl-4-oxoazetidine-1,2-dicarboxamide]	I (“I” indicates > 500)	1.02 to 2 h	0.1 to 0.5	H (“H” indicates 101-1000)		G (“G” indicates 1-100)
CC[C@@H](NC(=O)N1C(=O)[C@H](Cc2cc(C)nc(N)c2)[C@H]1C(=O)N(C)c1ccnn1C)C1CCCCC1 [Compound 1-67, (2S,3R)-3-((2-amino-6-methylpyridin-4-yl)methyl)-N2-(1-methyl-1H-pyrazol-5-yl)-N1-((R)-1-cyclohexylpropyl)-N2-methyl-4-oxoazetidine-1,2-dicarboxamide]	I (“I” indicates > 500)	1.02 to 2 h	0.1 to 0.5	I (“I” indicates > 500)		G (“G” indicates 1-100)
CC[C@@H](NC(=O)N1C(=O)[C@H](Cc2ccnc(N)c2)[C@H]1C(=O)N(C)c1nccn1C)c1ccccc1Cl [Compound 1-83]	I (“I” indicates > 500)	2.02 to 4 h		H (“H” indicates 101-1000)	0.05 to 0.09	G (“G” indicates 1-100)
CC[C@@H](NC(=O)N1C(=O)[C@H](Cc2ccnc(N)c2)[C@H]1C(=O)N(C)c1cn(C)cn1)c1ccccc1 [Compound 1-90, (2S,3R)-3-((2-aminopyridin-4-yl)methyl)-N2-(1-methyl-1H-imidazol-4-yl)-N1-((R)-1-phenylpropyl)-N2-methyl-4-oxoazetidine-1,2-dicarboxamide]	I (“I” indicates > 500)	2.02 to 4 h	0.1 to 0.5	H (“H” indicates 101-1000)		G (“G” indicates 1-100)
CC[C@@H](NC(=O)N1C(=O)[C@H](Cc2cc(C)nc(N)c2)[C@H]1C(=O)N(C)c1nccn1C)c1cc(F)ccc1F [Compound 1-137, (2S,3R)-3-((2-amino-6-methylpyridin-4-yl)methyl)-N2-(1-methyl-1H-imidazol-2-yl)-N1-((R)-1-(2,5-difluorophenyl)propyl)-N2-methyl-4-oxoazetidine-1,2-dicarboxamide]	I (“I” indicates > 500)	> 4 h	0.05 to 0.09	H (“H” indicates 101-1000)		G (“G” indicates 1-100)
CC[C@@H](NC(=O)N1C(=O)[C@H](Cc2cc(C)nc(N)c2)[C@H]1C(=O)N(C)c1ccnn1C)c1ccc(C)c(C)c1 [Compound 1-152, (2S,3R)-3-((2-amino-6-methylpyridin-4-yl)methyl)-N2-(1-methyl-1H-pyrazol-5-yl)-N1-((R)-1-(3,4-dimethylphenyl)propyl)-N2-methyl-4-oxoazetidine-1,2-dicarboxamide]	I (“I” indicates > 500)	1.02 to 2 h	0.1 to 0.5	I (“I” indicates > 500)		G (“G” indicates 1-100)

Further lines, with some results ahead:

Ratio: FXa/FXIa [1]	half-life at 2 μM [2]	fraction unbound at 4 h, 10 μM ([4]; both sexes)	Ratio: Thrombin/FXIa [5]	fraction unbound at 4 h, 10 μM ([4]; both)	SMILES	Ratio: Trypsin/FXIa [3]
I (“I” indicates > 500)	< 1 h	< 0.05	H (“H” indicates 101-1000)		CC(C)[C@@H](NC(=O)N1C(=O)[C@H](Cc2ccnc(N)c2)[C@H]1C(=O)N(C)c1ccn(C)n1)C1CCCCC1 [Compound 1-57, (2S,3R)-3-((2-aminopyridin-4-yl)methyl)-N2-(1-methyl-1H-pyrazol-3-yl)-N1-((R)-1-cyclohexyl-2-methylpropyl)-N2-methyl-4-oxoazetidine-1,2-dicarboxamide]	G (“G” indicates 1-100)
I (“I” indicates > 500)	< 1 h	0.05 to 0.09	H (“H” indicates 101-1000)		CN(C(=O)[C@@H]1[C@@H](Cc2ccnc(N)c2)C(=O)N1C(=O)N[C@@H](C1CCCCC1)C1CC1)c1ccn(C)n1 [Compound 1-58, (2S,3R)-3-((2-aminopyridin-4-yl)methyl)-N2-(1-methyl-1H-pyrazol-3-yl)-N1-((R)-cyclohexyl-cyclopropylmethyl)-N2-methyl-4-oxoazetidine-1,2-dicarboxamide]	G (“G” indicates 1-100)
I (“I” indicates > 500)	< 1 h	0.1 to 0.5	I (“I” indicates > 500)		CC[C@@H](NC(=O)N1C(=O)[C@H](Cc2cc(C)nc(NC)c2)[C@H]1C(=O)N(C)c1ccnn1C)C1CCCCC1 [Compound 1-62, (2S,3R)-3-((2-methylamino-6-methylpyridin-4-yl)methyl)-N2-(1-methyl-1H-pyrazol-5-yl)-N1-((R)-1-cyclohexylpropyl)-N2-methyl-4-oxoazetidine-1,2-dicarboxamide]	G (“G” indicates 1-100)
I (“I” indicates > 500)	< 1 h	0.1 to 0.5	I (“I” indicates > 500)		CC[C@@H](NC(=O)N1C(=O)[C@H](Cc2ccnc(N)c2)[C@H]1C(=O)N(C)c1ccnn1C)C1CCCCC1 [Compound 1-63, (2S,3R)-3-((2-aminopyridin-4-yl)methyl)-N2-(1-methyl-1H-pyrazol-5-yl)-N1-((R)-1-cyclohexylpropyl)-N2-methyl-4-oxoazetidine-1,2-dicarboxamide]	G (“G” indicates 1-100)
I (“I” indicates > 500)	2.02 to 4 h	0.1 to 0.5	H (“H” indicates 101-1000)		CC[C@@H](NC(=O)N1C(=O)[C@H](Cc2ccnc(N)c2)[C@H]1C(=O)N(C)c1nccn1C)c1cccc(C)c1 [Compound 1-80, (2S,3R)-3-((2-aminopyridin-4-yl)methyl)-N2-(1-methyl-1H-imidazol-2-yl)-N1-((R)-1-(3-methylphenyl)propyl)-N2-methyl-4-oxoazetidine-1,2-dicarboxamide]	G (“G” indicates 1-100)
H (“H” indicates 101-1000)	> 4 h	0.1 to 0.5	G (“G” indicates 1-100)		CC[C@@H](NC(=O)N1C(=O)[C@H](Cc2ccnc(N)c2)[C@H]1C(=O)N(C)c1cnn(C)c1)c1ccccc1 [Compound 1-88, (2S,3R)-3-((2-aminopyridin-4-yl)methyl)-N2-(1-methyl-1H-pyrazol-4-yl)-N1-((R)-1-phenylpropyl)-N2-methyl-4-oxoazetidine-1,2-dicarboxamide]	G (“G” indicates 1-100)
I (“I” indicates > 500)	2.02 to 4 h	0.1 to 0.5	I (“I” indicates > 500)		CC[C@@H](NC(=O)N1C(=O)[C@H](Cc2cc(C)nc(N)c2)[C@H]1C(=O)N(C)c1ccnn1C)c1ccc(C)c(F)c1 [Compound 1-155, (2S,3R)-3-((2-amino-6-methylpyridin-4-yl)methyl)-N2-(1-methyl-1H-pyrazol-5-yl)-N1-((R)-1-(3-fluoro-4-methylphenyl)propyl)-N2-methyl-4-oxoazetidine-1,2-dicarboxamide]	G (“G” indicates 1-100)
